Reference: US9920053B2, “N-(hetero)aryl-substituted heteroyclic derivatives useful for the treatment of diseases or conditions related to the central nervous system” (CHRONOS THERAPEUTICS LIMITED, priority 2014, dated 2018)

Legend:
[1] = target: human serotonin transporter (SERT) (Homo sapiens (Human), UniProt P31645); assay: Scintillation Proximity Assay (SPA) for human SERT binding ([3H]citalopram); conditions: recombinant human SERT, CHO membranes
Description: (§1) Affinity is expressed in terms of inhibition constant (Ki) of the compounds of the invention for DAT, NET and SERT, and it is typically calculated from the IC50 values obtained in competition experiments using Cheng and Prusoff equation (Cheng and Prusoff, Biochem. Pharmacol. 22:3099, 1973). In the context of the present invention pKi values (corresponding to the antilogarithm of Ki) are used instead of Ki; pKi are only estimated to be accurate to about 0.3 log unit.
(§2) Chinese Hamster Ovary (CHO) cells stably expressing either human DAT (hDAT-CHO) or human NET (hNET-CHO) or human SERT (hSERT-CHO) are used for the membrane preparations for radioligand binding assays using Scintillation proximity Assay (SPA) technique. Each cell line is cultured independently in F-12K Nutrient Mixture containing 10% of Fetal Bovine Serum (FBS) supplemented with 450 μg/ml G-418. When cells are at 70-80% of confluence 3 mM Na Butyrate was added to the cell culture medium. After 24 h of incubation, the culture medium was removed and the cells detached with Versene (DAT) or by scraping (NET and SERT). Cell suspension is centrifuged at 41,000 g for 10 minutes at 4° C. The resultant pellets are re-suspended in 15 volumes of Ice-cold buffer (20 mM HEPES, 145 mM NaCl, 5 mM KCl, pH7.3), homogenized using an Ultra Turrax homogeniser and centrifuged as before. The resultant membrane pellets are re-suspended in up to 15 volume of ice-cold buffer, incubated for 20 minutes at 37° C and centrifuged as before at 41,000 g. The final membrane pellets are re-suspended into 5-10 volumes of ice-cold buffer, dispensed into 0.5 ml aliquots and stored at −80° C. until use. Protein concentration for each preparation is determined using Bio-Rad Protein Assay Kit.
(§3) The affinity of the compounds of the invention to the human DAT or NET or SERT transporters is assessed by using the [^3H]WIN-35,428 or [^3H]nisoxetine or [^3H]citalopram binding assays in recombinant human DAT, NET and SERT membranes with the SPA technology. The final assay volume is 50 μL in 384 well plates.
(§4) Briefly, 0.5 μL of test compound in neat DMSO or 0.5 μL of DMSO for total binding (TB) or 0.5 μL of indatraline 1 mM (10 μM final concentration) for non specific binding (NSB) are added to the assay plate. 50 μL of the SPA mixture is added to each well, containing: 30 μg/mL or 10 μg/mL or 25 μg/mL DAT, NET, SERT membranes, respectively; 5 nM [^3H]WIN-35,428 or 5 nM [^3H]nisoxetine or 1 nM [^3H]citalopram, for DAT, NET, SERT assay, respectively; 2.5 mg/mL or 1 mg/mL or 4 mg/mL WGA-PVT SPA beads (PerkinElmer RPNQ0001, for DAT, NET, SERT assay, respectively. All components are added to Assay Buffer (20 mM HEPES pH 7.4, 145 mM NaCl, 5 mM KCl, 0.01% Pluronic F-127). 0.02% BSA was used for DAT binding only. Plates are sealed with Topseal A and centrifuged 1 min, 800 rpm. Plates are loaded into a 1450 Microbeta TriLux (Perkin-Elmer) plate reader and the radioactivity counted after at least 4 hrs or overnight incubation at room temperature. Curve fitting and IC50 estimations are performed using a four parameter model in XLfit (IDBS, Guilford, UK) for Microdoft Excel (Microsoft, Redmond, Wash.).

[2] = target: human norepinephrine transporter (NET) (Homo sapiens (Human), UniProt P23975); assay: Scintillation Proximity Assay (SPA) for human NET binding ([3H]nisoxetine); conditions: recombinant human NET, CHO membranes
Description: as §1, §2, §3, §4

[3] = target: human dopamine transporter (DAT) (Homo sapiens (Human), UniProt Q01959); assay: Scintillation Proximity Assay (SPA) for human DAT binding ([3H]WIN-35,428); conditions: recombinant human DAT, CHO
Description: as §1, §2, §3, §4
The potency of the compounds of the invention in blocking the DAT function is measured using an uptake assay in a recombinant CHO cell line expressing human DAT (hDAT-CHO). Potency is measured in terms of pIC50 by testing the compounds of invention for the inhibition of [^3H]-dopamine uptake in DAT-CHO cells using a SPA technology in 384 well format.
Briefly, on the days of the experiment hDAT-CHO cells are detached using Versene and added (75,000 cells/mL) to the SPA Mixture, which contains the following components in Assay Buffer (20 mM HEPES, 145 mM NaCl, 5 mM KCl, 2 mM CaCl2, 1 mM MgCl2 and 1 g/L glucose, pH 7.3): 0.02% w/v of Pluronic F127, 2 mg/mL SPA Imaging beads (RPNQ0260, PerkinElmer), 10 μM pargyline and 80 nM of [^3H]-dopamine. […]

Sequence of human dopamine transporter (DAT) (Q01959 whole entry): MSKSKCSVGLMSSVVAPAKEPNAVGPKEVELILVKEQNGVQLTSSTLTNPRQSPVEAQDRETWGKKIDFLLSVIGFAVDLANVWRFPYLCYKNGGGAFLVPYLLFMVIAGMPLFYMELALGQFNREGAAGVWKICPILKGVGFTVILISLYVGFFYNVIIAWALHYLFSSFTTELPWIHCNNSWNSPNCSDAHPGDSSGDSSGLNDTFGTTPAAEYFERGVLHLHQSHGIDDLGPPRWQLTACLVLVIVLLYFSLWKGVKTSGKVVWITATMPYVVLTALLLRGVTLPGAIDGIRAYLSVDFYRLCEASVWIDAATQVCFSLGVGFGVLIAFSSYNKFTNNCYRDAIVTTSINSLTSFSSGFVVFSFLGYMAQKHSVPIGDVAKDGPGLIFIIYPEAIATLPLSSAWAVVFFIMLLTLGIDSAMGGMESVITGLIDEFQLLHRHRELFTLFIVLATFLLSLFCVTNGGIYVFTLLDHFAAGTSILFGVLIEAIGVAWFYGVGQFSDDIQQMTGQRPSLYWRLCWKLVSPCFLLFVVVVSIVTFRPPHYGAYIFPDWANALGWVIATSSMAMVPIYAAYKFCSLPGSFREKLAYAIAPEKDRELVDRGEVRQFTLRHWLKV
Sequence of human serotonin transporter (SERT) (P31645 whole entry): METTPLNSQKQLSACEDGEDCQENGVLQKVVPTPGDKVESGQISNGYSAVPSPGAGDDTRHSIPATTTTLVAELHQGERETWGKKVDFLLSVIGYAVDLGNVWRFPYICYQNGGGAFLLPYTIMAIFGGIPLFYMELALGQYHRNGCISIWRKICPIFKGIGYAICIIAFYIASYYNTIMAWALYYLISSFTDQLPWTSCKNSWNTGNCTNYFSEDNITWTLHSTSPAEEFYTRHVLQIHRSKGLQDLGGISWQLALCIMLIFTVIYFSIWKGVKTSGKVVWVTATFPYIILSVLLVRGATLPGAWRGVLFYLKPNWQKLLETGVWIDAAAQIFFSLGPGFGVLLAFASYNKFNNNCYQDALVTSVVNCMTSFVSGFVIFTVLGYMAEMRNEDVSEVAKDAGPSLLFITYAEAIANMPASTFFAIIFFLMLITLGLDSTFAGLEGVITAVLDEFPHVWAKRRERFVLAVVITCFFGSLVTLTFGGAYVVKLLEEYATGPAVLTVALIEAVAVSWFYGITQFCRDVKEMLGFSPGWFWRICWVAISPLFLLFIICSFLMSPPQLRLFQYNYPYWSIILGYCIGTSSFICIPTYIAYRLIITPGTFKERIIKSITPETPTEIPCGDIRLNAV
Sequence of human norepinephrine transporter (NET) (P23975 whole entry): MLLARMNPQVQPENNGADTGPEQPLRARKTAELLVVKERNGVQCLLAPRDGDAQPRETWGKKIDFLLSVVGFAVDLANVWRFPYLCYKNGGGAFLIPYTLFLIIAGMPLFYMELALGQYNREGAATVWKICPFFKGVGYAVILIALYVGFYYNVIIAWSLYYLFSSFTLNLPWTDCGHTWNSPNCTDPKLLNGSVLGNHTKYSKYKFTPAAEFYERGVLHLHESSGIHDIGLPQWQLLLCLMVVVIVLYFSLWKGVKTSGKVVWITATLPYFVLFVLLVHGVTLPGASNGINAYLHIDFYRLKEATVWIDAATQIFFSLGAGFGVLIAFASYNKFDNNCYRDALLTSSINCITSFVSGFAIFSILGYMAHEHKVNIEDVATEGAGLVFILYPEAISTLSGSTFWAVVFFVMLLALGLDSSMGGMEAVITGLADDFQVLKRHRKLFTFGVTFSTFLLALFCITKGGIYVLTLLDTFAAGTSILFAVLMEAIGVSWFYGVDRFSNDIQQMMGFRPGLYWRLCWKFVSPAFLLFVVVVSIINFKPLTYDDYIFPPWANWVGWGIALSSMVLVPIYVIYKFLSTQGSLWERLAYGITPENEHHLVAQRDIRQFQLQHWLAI

SMILES	IC50 [1] [µM]	pIC50 NET [2]	pIC50 DAT [3]
CC(C)(C)NCC1(O)CCN(c2nc(Oc3cccc(F)c3)cc(C(F)(F)F)n2)CC1 [Example 9, 4-[(tert-butylamino)methyl]-1-[4-(3-fluorophenoxy)-6-(trifluoromethyl)pyrimidin-2-yl]piperidin-4-ol]	11.2	6.02	7.91
O=C1CCCN1CC1(O)CCN(c2nc(Oc3cccc(F)c3)cc(C(F)(F)F)n2)CC1 [Example 10, 1-({1-[4-(3-fluorophenoxy)-6-(trifluoromethyl)pyrimidin-2-yl]-4-hydroxypiperidin-4-yl}methyl)pyrrolidin-2-one]	> 100	5.33	7.18
Cl.NCC1(O)CCN(c2nc(Oc3cccc(F)c3)cc(C(F)(F)F)n2)CC1 [Example 12, 4-(aminomethyl)-1-[4-(3-fluorophenoxy)-6-(trifluoromethyl)pyrimidin-2-yl]piperidin-4-ol hydrochloride]	8.71	6.84	8.56
NCC1(O)CCN(c2cc(F)cc(Oc3cccc(F)c3)c2)CC1 [Example 14, 4-(aminomethyl)-1-[3-fluoro-5-(3-fluorophenoxy)phenyl]piperidin-4-ol]	0.603	6.93	8.82
NCC1(O)CCN(c2cc(F)cc(Oc3cccc(F)c3)c2F)CC1 [Example 15, 4-(aminomethyl)-1-[2,5-difluoro-3-(3-fluorophenoxy)phenyl]piperidin-4-ol]	0.661	7.24	9.04
NCC1(O)CCN(c2cccc(Oc3ccccc3)c2F)CC1 [Example 16, 4-(aminomethyl)-1-(2-fluoro-3-phenoxyphenyl)piperidin-4-ol]	1.45	6.01	7.81
NCC1(O)CCN(c2cccc(Oc3cccc(F)c3)c2F)CC1 [Example 17, 4-(aminomethyl)-1-[2-fluoro-3-(3-fluorophenoxy)phenyl]piperidin-4-ol]	2.09	6.49	8.17
NC1(CO)CCN(c2nc(Oc3cccc(F)c3)cc(C(F)(F)F)n2)CC1 [Example 20, {4-amino-1-[4-(3-fluorophenoxy)-6-(trifluoromethyl)pyrimidin-2-yl]piperidin-4-yl}methanol]	5.13	6.50	8.39
O=C(CC1CC1)NCC1(O)CCN(c2nc(Oc3cccc(F)c3)cc(C(F)(F)F)n2)CC1 [Example 22, 2-cyclopropyl-N-({1-[4-(3-fluorophenoxy)-6-(trifluoromethyl)pyrimidin-2-yl]-4-hydroxypiperidin-4-yl}methyl)acetamide]	> 100	5.76	7.58
CC(C)OCC(=O)NCC1(O)CCN(c2nc(Oc3cccc(F)c3)cc(C(F)(F)F)n2)CC1 [Example 23, N-({1-[4-(3-fluorophenoxy)-6-(trifluoromethyl)pyrimidin-2-yl]-4-hydroxypiperidin-4-yl}methyl)-2-(propan-2-yloxy)acetamide]	> 100	5.55	7.75
CC(=O)NCC1(O)CCN(c2nc(Oc3cccc(F)c3)cc(C(F)(F)F)n2)CC1 [Example 24, N-({1-[4-(3-fluorophenoxy)-6-(trifluoromethyl)pyrimidin-2-yl]-4-hydroxypiperidin-4-yl}methyl)acetamide]	> 100	5.04	7.42
OC1(CNC2CC2)CCN(c2nc(Oc3cccc(F)c3)cc(C(F)(F)F)n2)C1 (stereo not drawn) [Example 30, 3-[(cyclopropylamino)methyl]-1-[4-(3-fluorophenoxy)-6-(trifluoromethyl)pyrimidin-2-yl]pyrrolidin-3-ol]	34.7	6.78	8.72
